# In US20010039287A1, “AROMATIC SULFONE HYDROXAMIC ACID METALLOPROTEASE INHIBITOR” (priority 1997, published 2001):
# Legend:
# [1] = test system: neovascularization of the corneal stroma; test: In vivo angiogenesis assay (corneal micropocket, bFGF pellet); details: mouse corneal micropocket, 50 mpk bid po, day five, area of neovascularization vs control
# Protocol: The study of angiogenesis depends on a reliable and reproducible model for the stimulation and inhibition of a neovascular response. The corneal micropocket assay provides such a model of angiogenesis in the cornea of a mouse. See, A Model of Angiogenesis in the Mouse Cornea; Kenyon, B M, et al., Investigative ophthalmology & Visual Science, July 1996, Vol. 37, No. 8.
# In this assay, uniformLy sized Hydron™ pellets containing bFGF and sucralfate were prepared and surgically implanted into the stroma mouse cornea adjacent to the temporal limbus. […]
# Mice were dosed on a daily basis for the duration of the assay. […] At day five, the degree of angiogenic inhibition was scored by viewing the neovascular progression with a slit lamp microscope.
# The mice were anesthetized and the studied eye was once again proptosed. The maximum vessel length of neovascularization, extending from the limbal vascular plexus toward the pellet was measured. In addition, the contiguous circumferential zone of neovascularization was measured as clock hours, where 30 degrees of arc equals one clock hour. The area of angiogenesis was calculated as follows. […]
# Five to six mice were utilized for each compound in each study. The studied mice were thereafter compared to control mice and the difference in the area of neovascularization was recorded as an averaged value. […]
# [2] = test system: PC-3 human pancreatic cancer cells (ATCC CRL 1435); test: In vivo PC-3 tumor reduction; parameters: species or system mouse; details: PC-3 tumor in Balb/c nu/nu mice, day 25-30
# Protocol: PC-3 human pancreatic cancer eclls (ATCC CRL 1435) were grown to 90% confluence in F12/MEM (Gibco) containing 7% FBS (Gibco). Cells were mechanically harvested using a rubber scraper, and then washed twice with cold medium. The resulting cells were resuspended in cold medium with 30% matrigel (Collaborative Research) and the cell-containing medium was maintained on ice until used.
# Balb/c nu/nu mice at 7-9 weeks of age were anesthetized with avertin [2,2, 2-tribromethanol/t-amyl alcohol (1 g/l mL) diluted 1:60 into phosphate-buffered sline] and 3-5×10^6 of the above cells in 0.2 mL of medium were injected into the left flank of each mouse. Cells were injected in the morning, whereas dosing with an inhibitor began at 6 PM. The animals were gavaged BID from day zero (cell injection day) to day 25-30, at which time the animals were euthanized and tumors weighed.
# Compounds were dosed at 10 mg/mL in 0.5% methylcellulose/0.1% polysorbate 80 to provide a 50 mg/kg (mpk) dose twice each day, or diluted to provide a 10 mg/kg (mpk) dose twice each day. Tumor measurements began on day 7 and continued every third or fourth day until completion of the study. Groups of ten mice were used in each study and nine to ten survived. Each group of mice so studied constitutes an “n” value of one, so that “n” values greater than one represent multiple studies whose averaged result is provided in the table. […]
# [3] = test system: solid tumor cancers (colorectal, pancreatic, ovarian, prostate); details: cited from earlier work
compound,measurement,setting,value
CNC(=O)[C@@H](NC(=O)[C@H](CC(C)C)[C@H](O)C(=O)NO)C(C)(C)C [marimastat],Inhibition of Angiogenesis,[1],48 (n = 6) percent
same,Average Percentage Reduction In Tumor Weight,[2]; 10 mpk BID gavage,<5 Percentage
same,Average Percentage Reduction In Tumor Weight,[2]; 50 mpk BID gavage,39 (n = 2) Percentage
same,most common drug-related toxicity,"[3]; clinical trials, patients",musculoskeletal pain and stiffness
same,cancer-specific antigens used as surrogate markers for biological activity,"[3]; patients with advanced, rapidly progressive, treatment-refractory solid tumor cancers",dose-related reduction in the rise of cancer-specific antigens
